Patent publication US9522881B2, “Hydroxyindole carboxylic acid based inhibitors for oncogenic Src homology-2 domain containing protein tyrosine phosphatase-2 (SHP2)” (Indiana University Research and Technology Corporation, priority 2013, dated 2016)

Tests used:
[1] = tested on: 32D myeloid cells bearing KITD814V; test: Proliferation (thymidine incorporation) of 32D myeloid cells bearing KITD814V; assay type: cell-based
Protocol: (§1) FIG. 8A is a graph depicting 32D myeloid cells bearing wild-type (WT) KIT or KITD814V that were starved of serum and growth factors for 6 hours and subjected to proliferation assay in the presence or absence of the indicated concentration of II-B08 or 11a-1 as analyzed in Example 6. Assay was performed in the presence of IL-3 (10 ng/mL) for cells bearing WT KIT and in the absence of growth factors for cells bearing oncogenic KITD814V. Bars denote the mean thymidine incorporation (CPM±SEM) consolidated from four independent experiments performed in triplicate. *p<0.05.
(§2) To further determine the efficacy of compound 11a-1, the growth of oncogenic KITD814V bearing 32D myeloid cells in the presence of II-B08 and 11a-1 were compared. Specifically, the wild-type (WT) KIT and KITD814V were inserted into the bicistronic retroviral vector, MIEG3, upstream of the internal ribosome entry site (IRES) and the enhanced green fluorescent protein (EGFP) gene as previously described in Mali et al., 2012. Retroviral supernatants for transduction of 32D myeloid cells and primary hematopoietic stem and progenitor cells were generated using Phoenix ecotropic packaging cell line transfected with retroviral vector plasmids using a calcium phosphate transfection kit (Invitrogen, Carlsbad, Calif.). Supernatants were collected 48 hours after transfection and filtered through 0.45 μm membranes. 32D myeloid cells were infected twice at 24-hour intervals with 2 mL high/titer virus supernatant in the presence of 10 ng/mL IL-3 and 8 μg/mL polybrene. Forty-eight hours after infection, 32D cells expressing WT KIT or KITD814V receptors were sorted to homogeneity based on EGFP expression and utilized to perform all of the experiments.

[2] = tested on: 32D myeloid cells bearing wild-type (WT) KIT; test: Proliferation (thymidine incorporation) of 32D myeloid cells bearing WT KIT; assay type: cell-based; details: tested concentrations, with IL-3
Protocol: as §1
as §2, with “32D myeloid cells were infected twice at 24-hour intervals with 2 mL high/titer virus supernatant in the presence of 10 ng/mL IL-3 and 8 μg/mL polybrene. Forty-eight hours after infection, 32D cells expressing WT KIT or KITD814V receptors were sorted to homogeneity based on EGFP expression and utilized to perform all of the experiments.” left out

[3] = tested on: 32D myeloid cells bearing KITD814V; details: previously shown (Mali et al., 2012); cited from earlier work
hematopoietic progenitor = details: cited from earlier work
leukemic mice = details: together with PI3Kinase inhibitor LY294002, compared to either inhibitor alone; cited from earlier work
[4] = tested on: growth factor stimulated ERK1/2 activation; details: cited from earlier work

Cn1c(-c2ccccc2)c(-c2cn(CCC(=O)Nc3ccc(-c4ccccc4)cc3)nn2)c2cc(C(=O)O)c(O)cc21 [IIB08]
ligand independent growth of KITD814V bearing 32D cells ([1]; 1 μM): not at 1 μM concentration
ligand independent growth of KITD814V bearing 32D cells ([1]; 5 μM): significant suppression
growth of WT KIT bearing 32D cells [2]: no significant suppression
oncogenic KITD814V induced ligand independent growth [3]: suppressed
hematopoietic progenitor proliferation (hematopoietic progenitor): blocked
survival of leukemic mice (leukemic mice): significantly prolonged the survival
growth factor stimulated ERK1/2 activation [4]: blocked
